Entries after “also recorded” stand apart in the source; their conditions may differ.
Columns and labels:
TNF-α production = TNF-α production from PMA differentiated, LPS activated THP-1 cells (ELISA); assay type: cell-based, human; settings: 4 h
Method: The symbol * and δ represents the P≦0.03 and P≦0.006, respectively.
FIG. 2 depicts the effect of pentoxyfillin (PTX) on TNF-α production (pg/mL) Human monocytic leukemia THP-1 cells were differentiated and activated with 20 ng/mL of PMA and 50 ng/mL of LPS, respectively and incubated with different concentrations of PTX for 4h, the supernatant was analyzed for the level of TNF-α by ELISA. The symbol * represents P≦of 0.03.
THP-1 (human monocytic leukemia) cells were maintained in RPMI-1640 supplemented with 10% FBS, 2 mmol/L glutamine, 5.5 mmol/L glucose, 50 μmol/L mercaptoethanol, 1 mmol/L sodium pyruvate, and 10 mmol/L HEPES and incubated at 37° C. in 5% CO2. Cells were grown in […] culture flask until they attained 70% confluency. Cells were then plated in 24-well tissue culture plates at a concentration of 2.5×10^5 cells/mL. Cells were differentiated into macrophages using PMA at a final concentration of 20 ng/mL and further incubated at 37° C. in 5% CO2 environment for 24 h. […] After addition of the compound cells were then incubated for 4 h for TNF-α production and 18 h for IL-1β production at 37° C. in 5% CO2. The supernatants were harvested and analyzed for the level of TNF-α and IL-1β, by human TNF-α and IL-1β Duo set ELISA kits, and according to the manufacturer's instructions.

serum TNF-α = experiment: Adjuvant induced arthritis model, serum TNF-α; assay type: in vivo, Sprague Dawley rats; settings: AIA rats, daily intraperitoneal; Patuletin 25 mg/kg, indomethacin 5 mg/kg
Method: (§1) All studies were carried out using Female Sprague Dawley (SD) rats weighing 150-250 gms. Animals were kept at 21±2° C. and on a 12-h light/dark cycle, received standardized pelleted diet and tap water. Experiments were performed under the ethical guidelines of the International Association for the study of pain in conscious animals. Each group contains 12 animals with randomly distributed weights into each treatment group.
(§2) Arthritis was induced by injecting freshly prepared 100 μL of 1 mg suspension of lyophilized Mycobacterium tuberculosis H37Ra (MT H37Ra; DIFCO Laboratories, Detroit, Mich., USA), subcutaneously at the rat tail base using sterile hypodermic needle. Inoculation was carried out under anesthesia with a combination of 20 mg/kg ketamine and 5 mg/kg xylazine, injected intraperitoneally. Compound and the reference drug were administered daily, intraperitoneally using sterile syringes. The positive control received vehicle (5% DMSO+PBS) or saline only; treatment groups received test compounds (25 mg/kg), whereas reference group received indomethacin (5 mg/kg). The doses of the test compounds were selected after preliminary dose finding studies. […]
(§3) The quantitative measurement of TNF-α and IL-1β was done in serum of all groups of animals including arthritic and non-arthritic using commercial ELISA assay kits (Abcam, USA) according to the manufacturer's instructions. […]

serum IL-1β = experiment: Adjuvant induced arthritis model, serum IL-1β; assay type: in vivo, Sprague Dawley rats; settings: AIA rats, daily intraperitoneal; Patuletin 25 mg/kg, indomethacin 5 mg/kg
Method: as §1, §2, §3

serum nitric oxide = experiment: Adjuvant induced arthritis model, serum nitric oxide; assay type: in vivo, Sprague Dawley rats; settings: AIA rats, daily intraperitoneal; Patuletin 25 mg/kg, indomethacin 5 mg/kg
Method: as §1
(§4) Arthritis was induced by injecting freshly prepared 100 μL of 1 mg suspension of lyophilized Mycobacterium tuberculosis H37Ra (MT H37Ra; DIFCO Laboratories, Detroit, Mich., USA), subcutaneously at the rat tail base using sterile hypodermic needle. […]
(§5) Peroxide (PO) and nitric oxide (NO), in serum were determined in the serum samples of both the normal and arthritic groups, using quantitative colorimetric assay kits, i.e., the Quantichrom ™ Nitric Oxide Assay Kit, and the Quantichrome™ Peroxide assay kit Diox-250 (BioAssay Systems, Hayward, Calif., USA). […] The samples were analyzed in duplicates using 96-well plate and the plate was read at 540 nm. The Quantichrome™ Peroxide assay kit Diox −250 system is an improved method which utilizes the oxidation of Fe^++ by peroxide present in the analyzed sample resulting in formation of purple complex that gives the accurate measure of peroxide level in the sample when read at 540-610 nm.

serum peroxide = experiment: Adjuvant induced arthritis model, serum peroxide; assay type: in vivo, Sprague Dawley rats; settings: AIA rats, daily intraperitoneal; Patuletin 25 mg/kg, indomethacin 5 mg/kg
Method: as §1, §4, §5

rheumatoid factor = experiment: Adjuvant induced arthritis model, serum RA factor; assay type: in vivo, Sprague Dawley rats; settings: AIA rats, daily intraperitoneal; Patuletin 25 mg/kg, indomethacin 5 mg/kg
Method: as §1
Arthritis was induced by injecting freshly prepared 100 μL of 1 mg suspension of lyophilized Mycobacterium tuberculosis H37Ra (MT H37Ra; DIFCO Laboratories, Detroit, Mich., USA), subcutaneously at the rat tail base using sterile hypodermic needle. Inoculation was carried out under anesthesia with a combination of 20 mg/kg ketamine and 5 mg/kg xylazine, injected intraperitoneally. Compound and the reference drug were administered daily, intraperitoneally using sterile syringes. […]
Measurement of RA factor in rat serum was determined using Tina-quant RFII Kit (Roche Diagnostics, USA) and automated analyzers according to manufacturer's instructions. The test principle involves the reaction of latex bound heat inactivated IgG (antigen) with RF antibodies in the sample to form Ag/Ab complex resulting in agglutination which can be measured turbidimetrically.

[1] = tested on: knee joints of arthritic rats; experiment: Adjuvant induced arthritis model, histopathology of knee joints (H & E); assay type: in vivo, Sprague Dawley rats; settings: H & E staining
Method: as §1
Arthritis was induced by injecting freshly prepared 100 μL of 1 mg suspension of lyophilized Mycobacterium tuberculosis H37Ra (MT H37Ra; DIFCO Laboratories, Detroit, Mich., USA), subcutaneously at the rat tail base using sterile hypodermic needle. Inoculation was carried out under anesthesia with a combination of 20 mg/kg ketamine and 5 mg/kg xylazine, injected intraperitoneally. Compound and the reference drug were administered daily, intraperitoneally using sterile syringes. The positive control received vehicle (5% DMSO+PBS) or saline only; treatment groups received test compounds (25 mg/kg), whereas reference group received indomethacin (5 mg/kg). The doses of the test compounds were selected after preliminary dose finding studies. The treatment was started on the same day after vaccination.
The animals were sacrificed at the end of the experiment and samples were taken from the knee joints. Sample fixation were done using 10% formalin following decalcification. The samples were then processed, embedded, cut, mounted and stained with hematoxylin and eosin (H & E) dye for microscopic evaluation.

[2] = tested on: ROS production from human peripheral whole blood phagocytes; experiment: Luminol enhanced chemiluminescence oxidative burst, whole blood; assay type: cell-based; settings: luminol enhanced, serum opsonized zymosan, read-out: Myeloperoxidase dependent Oxidative Burst (IC50 μg/mL) Whole blood
Method: (§6) Intracellular effect was determined using human peripheral whole blood phagocytes and isolated neutrophils and from mice peritoneum macrophages, where luminol-enhanced chemillumenescence assay was applied. The effect on myeloperoxidase independent ROS production was determined using lucigenin on murine macrophages RAW.267 cells.
(§7) Table 2. […] 267 cells (murine macrophages). DPI is used as standard drug. Reading presents mean±SD of three determinations.
(§8) Luminol enhanced chemiluminescence technique was applied to study the effect of compound on ROS from phagocytes, Using whole blood, neutrophil and macrophages Briefly, 25 μL diluted whole blood (1:50 dilution in sterile HBSS^++) or 25 μL of PMNs (1×10^6), or 25 μL of isolated macrophages (1×10^6) were incubated with 25 μL of compound in triplicates and using three different concentrations (1, 10 and 100 μg/mL) using white 96 wells plates. Wells received HBSS^++ and cells only without compound served as positive control. 25 μL of serum opsonized zymosan-A (SOZ), followed by 25 μL luminol (7×10^−5 M), was added to each well to maintain a volume of 100 μL/well. Plates were then incubated at 37° C. for 30 minutes in the thermostated chamber of the luminometer. Results were monitored as relative light unit (RLU) reading, with peak and total integral values set with repeated scans at 60 seconds intervals, and 1 second points measuring time.

[3] = tested on: ROS production from human neutrophils; experiment: Luminol enhanced chemiluminescence oxidative burst, isolated neutrophils; assay type: cell-based; settings: Neutrophil, serum opsonized zymosan, read-out: Myeloperoxidase dependent Oxidative Burst (IC50 μg/mL) Neutrophils
Method: as §6, §7
Heparinized blood was obtained by vein puncture aseptically, from healthy volunteers (25-38 years age). The buffy coat containing polymorhonuclear neutrophils (PMNs) was collected by dextran sedimentation, and cells were isolated after the LSM density gradient centrifugation. […]
as §8, with “Wells received HBSS^++ and cells only without compound served as positive control. 25 μL of serum opsonized zymosan-A (SOZ), followed by 25 μL luminol (7×10^−5 M), was added to each well to maintain a volume of 100 μL/well. Plates were then incubated at 37° C. for 30 minutes in the thermostated chamber of the luminometer.” left out

[4] = tested on: ROS production from mice peritoneal macrophages; experiment: Luminol enhanced chemiluminescence oxidative burst, mice peritoneal macrophages; assay type: cell-based; settings: Mus musculus, Peritoneal macrophage, serum opsonized zymosan, read-out: Myeloperoxidase dependent Oxidative Burst (IC50 μg/mL) Macrophages
Method: as §6, §7
NMRI mice of 25 to 30 gm weight were injected aseptically with 1 mL of heat inactivated fetal bovine serum (FBS) in the peritoneum cavity, using sterile 1 mL syringe and mice were kept for further 72 h. […] Cells were counted and concentration was adjusted to 1×10^6/mL for chemiluminescence assay.
as §8, with “Wells received HBSS^++ and cells only without compound served as positive control. 25 μL of serum opsonized zymosan-A (SOZ), followed by 25 μL luminol (7×10^−5 M), was added to each well to maintain a volume of 100 μL/well. Plates were then incubated at 37° C. for 30 minutes in the thermostated chamber of the luminometer.” left out

[5] = tested on: ROS production from PMA activated RAW. 267 cells (murine macrophages); experiment: Lucigenin enhanced (myeloperoxidase independent) oxidative burst; assay type: cell-based; settings: lucigenin enhanced, PMA activated RAW. 267 cells
Method: as §6, with “cells. […] Table 2. […] 267 cells (murine macrophages). DPI is used as standard drug. Reading presents mean±SD of three determinations.” for “cells.”

[6] = tested on: PHA activated T cells isolated from human peripheral blood; experiment: Thymidine incorporation T cell proliferation assay (PHA activated); assay type: cell-based; settings: 72 h
Method: Heparinized blood was obtained by vein puncture aseptically from healthy volunteers (25-38 years age). Blood (10 mL) was mixed with incomplete RPMI, layered on 5 mL of Lymphocyte separation medium and centrifuged at 400 g for 20 min at room temperature. Buffy layer was collected and mixed with incomplete RPMI and centrifuged at 4° C. for 10 min at 300 g. Cells were obtained after the RBCs (if any) lysis using hypotonic solution, and washed at 4° C. for 10 min at 300 g. The cells were then suspended in complete RPMI containing 5% FBS and their concentration was adjusted to 2×10^6 cells/mL for T-cell proliferation assay.
Cell proliferation assay was conducted through standard thymidine incorporation technique. Briefly, isolated T-cells from peripheral blood of healthy individuals were plated at a concentration of 2×10^6 cells/mL in a round bottom 96-well tissue culture plates. Cells were stimulated with 7.5 μg/mL of PHA. […] The plate was then incubated for 72 hours at 37° C. in 5% CO2 incubator. After 72 hours, cultures were pulsed with 0.5 μCi/well tritiated thymidine (Amersham Pharmacia Biotech), and further incubated for 18 h. Cells were harvested onto a glass fiber filters using cell harvester (Innotech, Dottikon, Switzerland). The level of the thymidine incorporated into the cells was measured by a liquid scintillation counter (LS 6500, Beckman Coulter, Fullerton, Calif., USA). Results were expressed as mean count per minute (CPM). The inhibitory activity of compounds on T-lymphocyte proliferation was calculated using the following formula: […]

## CC(=O)CCCCn1c(=O)c2c(ncn2C)n(C)c1=O [pentoxyfillin, reference compound]
TNF-α production
  inhibition of TNF-α production (IC50): 94.8 µg/mL

## COc1ccc2c(c1)c(CC(=O)O)c(C)n2C(=O)c1ccc(Cl)cc1 [Indomethacin, reference compound]
Serum TNF-α
  level of TNF-α in serum versus arthritic control group: marked decrease
Serum IL-1β
  level of IL-1β in serum versus arthritic control group: significant decrease; also recorded: marked decrease
Serum nitric oxide
  level of nitric oxide in serum versus arthritic control group: marked reduction; also recorded: significant decrease
Serum peroxide
  level of peroxide in serum versus arthritic control group: decrease; also recorded: non-significant reduction
Rheumatoid factor
  level of RA factor (rheumatoid factor) in serum versus arthritic control group: marked decrease
[1]
  histopathology of knee joints (in words) versus arthritic control rats: less infiltration of lymphocytes and minimal bone destruction
[1]; normal control score 0, arthritic control score 4
  histopathology score of knee joints: 2

## CC(C)Cc1ccc(C(C)C(=O)O)cc1 (centres unmarked) [Ibuprofen, reference compound]
[2]
  IC50: 11.2 ± 1.9 µg/mL
[3]
  IC50: 2.5 ± 0.6 µg/mL
[4]
  IC50: 16.9 ± 2.5 µg/mL

## [Cl-].c1ccc2c(c1)[I+]c1ccccc1-2 [DPI, reference compound]
[5]
  Myeloperoxidase independent Oxidative Burst (IC50 μg/mL) on macrophages: 1.6 ± 0.1 µg/mL

## C[C@]12C=CC(=O)C=C1CC[C@@H]1[C@@H]2[C@@H](O)C[C@@]2(C)[C@H]1CC[C@]2(O)C(=O)CO [Prednisolone]
[6]
  Human T cell proliferation (IC50 μg/mL): <0.62 µg/mL
[6]; Homo sapiens, T-cell, read-out: Human T cell proliferation (IC50 μg/mL)
  IC50: < 0.62 µg/mL
